Laboratory results taken from patent publication US20120157521A1, “TREATMENT OF MACULAR DEGENERATION” (Bonomics Limited, priority 2009, published 2012).

Legend:
tubulin = assay: Tubulin polymerisation assay; assay type: biochemical
Method: Tubulin Polymerisation Assay: Tubulin polymerisation inhibition assays were performed using a fluorescent-based detection kit (#BK011, Cytoskeleton) according to the instructions of the manufacturer. The test compound was added to a 2 mg/ml tubulin solution containing 20% glycerol and 1 mM GTP in 1× Buffer 1 (Buffer 1: 80 mM Piperazine-N,N′-bis[2-ethanesulfonic acid]sequisodium salt; 2 mM magnesium chloride; 0.5 mM Ethylene glycol-bis(b-amino-ethyl ether)N,N,N′,N′-tetra-acetic acid, pH 6.9, 10 uM fluorescent reporter). Fluorescence was measured over a period of 42 minutes at 1 minute intervals. Increased fluorescence indicates increase in tubulin polymerisation. There is a ten-fold increase in the affinity of the fluorescent reporter for polymerised tubulin compared to monomeric tubulin subunits. The result is a fluorescence signal that closely follows tubulin polymerisation.

[1] = system: quiescent human umbilical vein endothelial cells (HUVEC); assay: Proliferation assay - quiescent endothelium (MTT), HUVEC; assay type: cell-based; conditions: 48 hrs
Method: Proliferation Assay—quiescent endothelium: Human umbilical vein endothelial cells (CC-2519, Clonetics) were plated at 15000 cells/well in EBM2 (CC-3156, Clonetics)+0.5% FBS (CC-4101A, Clonetics)+GA-1000 (CC-4381A, Clonetics) in a 96 well plate in triplicate. Cells were cultured overnight at 37° C. 5% CO2. Medium was subsequently replaced with fresh medium including the compound or negative control. Cells were cultured for a period of 48 hrs. An MTT assay was performed to measure changes in cell numbers. Briefly, 20 μl of MTT reagent was added to cells containing 100 μl of EBM2+0.5% FBS and incubated at 37° C. for 2 hours. Absorbance was measured at 492 nm.

[2] = system: HUVEC cells under activated cell conditions; assay: Disruption of endothelial cell cytoskeleton (actin staining); assay type: cell-based, human; conditions: 10 nM, 20 minutes, actin stain
Method: FIG. 7 depicts disruption of endothelial cell cytoskeleton by compound Example 2. Endothelial cells were cultured in the presence of 10 nM compound Example 2 or DMSO control, and after 20 mins washed, fixed and stained with actin.
HUVEC cells were cultured under “activated” cell conditions in the presence of 10 nM compound Example 2 or DMSO control (using HUVEC cells). After 20 minutes cells were washed, fixed and stained for actin. […] A bleb is defined as an irregular bulge in the plasma membrane of a cell caused by localized decoupling of the cytoskeleton from the plasma membrane. Blebbing is the term used to describe the formation of blebs.

[3] = system: HUVEC endothelial cell capillary formation; assay: Endothelial cell capillary formation on Matrigel; conditions: HUVEC, 25,000/well, 96-well plates, 22 hrs
Method: DMSO vehicle was included in the analysis as a negative control. Cells were plated at 25,000/well in 96-well plates and cultured for 22 hrs.
DMSO vehicle (C, F) was included in the analysis as a negative control. Cells were plated at 25,000/well in 96-well plates and cultured for 22 hrs.

[4] = system: quiescent human abdominal aorta endothelial cells (HAAEC); assay: Proliferation assay - quiescent endothelium, HAAEC; conditions: Endothelial cell, read-out: Quiescent EC50
[5] = system: stable pre-formed HUVEC capillary tubes; assay: Disruptive activity on stable pre-formed capillary tubes on Matrigel; conditions: 5 hrs after compound, at concentrations that inhibit capillary formation

With COc1cc(C(=O)c2c(C)oc3c(O)c(OC)ccc23)cc(OC)c1OC [Example 1, 2-Methyl-7-hydroxy-3-(3,4,5-trimethoxybenzoyl)-6-methoxybenzofuran] the “Tubulin polymerisation inhibition (in words)” value (tubulin) was “potent tubulin polymerisation inhibitor”.

With COc1cc(C(=O)c2c(C)oc3c(OP(=O)([O-])[O-])c(OC)ccc23)cc(OC)c1OC.[Na+].[Na+] [Example 2, Disodium 6-methoxy-2-methyl-3-(3,4,5-trimethoxybenzoyl)benzofuran-7-yl phosphate] the EC50 [1] was 23.3 nM, the “Disruption of endothelial cell cytoskeleton (blebbing)” value [2] was “clear evidence of “blebbing”” and the “Effect on capillary formation on Matrigel” value [3] was “inhibited”. For the same molecule, the EC50 [4] was 12.5 nM and the “Disruption of stable pre-formed capillaries” value [5] was “does not disrupt stable pre-formed capillaries”.
